One test addresses T1, human LBAT (Homo sapiens, UniProt Q14973).
T1 construct: expressed in transfected cells; Geneticin-selected LBAT-overexpressing cells
T1 sequence (Q14973 1-349): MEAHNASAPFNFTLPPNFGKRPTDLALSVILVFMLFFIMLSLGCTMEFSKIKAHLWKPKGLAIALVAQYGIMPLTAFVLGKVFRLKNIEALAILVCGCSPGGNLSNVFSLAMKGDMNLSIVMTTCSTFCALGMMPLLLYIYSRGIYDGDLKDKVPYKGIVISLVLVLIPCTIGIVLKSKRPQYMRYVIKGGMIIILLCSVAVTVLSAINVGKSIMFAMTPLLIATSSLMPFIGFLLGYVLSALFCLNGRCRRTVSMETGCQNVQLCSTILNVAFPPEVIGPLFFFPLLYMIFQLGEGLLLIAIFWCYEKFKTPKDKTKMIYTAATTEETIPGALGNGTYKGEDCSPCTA
Briefly: LBAT (h/m) assay, human LBAT-overexpressing cells, 3H-taurocholic acid uptake. In kind it is cell-based. To be noted: 0.3 μM 3H-taurocholic acid + 7.5 μM cold taurocholic acid, 20 minutes, read-out: hLBAT IC50. As for the experimental part: 20,000 cells (Human or Mouse LBAT-overexpressing cells) were seeded in 96-wells plate (Corning CLS3809) in 100 μL MEM-alpha medium (Gibco 12571-063) supplemented with 10% FBS (Gibco 10438026) containing Geneticin (Gibco 10131-027) (1 mg/mL) and incubated at 37° C. in 5% CO2 for 24 hours. After incubation, media was decanted from the wells and cells were washed two times with 300 μL of basal MEM-alpha medium (FBS-free). After decanting basal MEM-alpha medium each time, plates were tapped against paper towel to ensure maximum removal of residual media.
For human LBAT, incubation mix was prepared by adding test inhibitor dilutions (3-fold serial dilution in DMSO (Sigma D2650), 10 points) in MEM-alpha (without FBS) containing 0.3 μM 3H-taurocholic acid (ARC ART-1368) and 7.5 μM cold taurocholic acid (Sigma T4009) (maintaining 0.2% final DMSO concentration). For mouse LBAT, incubation mix was prepared by adding test inhibitor dilutions (3-fold serial dilution in DMSO, 10 points) in MEM-alpha (without FBS) containing 0.3 μM 3H-taurocholic acid and 25 μM cold taurocholic acid maintaining 0.2% final DMSO concentration).
50 μL of incubation mix containing test inhibitors was then added to the wells (in duplicate) and the plates were incubated for 20 minutes in a CO2 incubator at 37° C. After incubation, the reaction was stopped by keeping the plates on ice water mix for 2-3 minutes and then the incubation mix was aspirated completely from the wells. The wells were washed two times with 250 μL of chilled unlabelled 1 mM taurocholic acid dissolved in HEPES (Gibco 15630080)-buffered (10 mM) HBSS (Gibco 14175079) (pH 7.4). The plates were tapped against a paper towel after every wash to ensure maximum removal of blocking buffer.
100 μL of MicroScint-20 (PerkinElmer 6013621) was added to the wells and kept overnight at room temperature before reading the plates in TopCount NXT™ Microplate Scintillation and Luminescence Counter from PerkinElmer under 3H Test protocol (set at 120 seconds reading time per well, with normal plate orientation).
(§1) All test compounds were provided in powder form at room temperature. 10 mM DMSO stocks of the test compounds were prepared, aliquoted and stored at −20° C. From the 10 mM DMSO stock of the compounds, a 3-fold serial dilution in DMSO was prepared to get a total of 10 dilutions of the test compounds. 0.5 μL of this dilution in DMSO was added to 250 μL of FBS-free basal media containing 3H-taurocholic acid and cold taurocholic acid to prepare the incubation mixture.

The next test has as its target T2, human IBAT (Homo sapiens, UniProt Q12908).
T2 construct: expressed in transfected cells; Puromycin-selected IBAT-overexpressing cells
T2 sequence (Q12908 1-348): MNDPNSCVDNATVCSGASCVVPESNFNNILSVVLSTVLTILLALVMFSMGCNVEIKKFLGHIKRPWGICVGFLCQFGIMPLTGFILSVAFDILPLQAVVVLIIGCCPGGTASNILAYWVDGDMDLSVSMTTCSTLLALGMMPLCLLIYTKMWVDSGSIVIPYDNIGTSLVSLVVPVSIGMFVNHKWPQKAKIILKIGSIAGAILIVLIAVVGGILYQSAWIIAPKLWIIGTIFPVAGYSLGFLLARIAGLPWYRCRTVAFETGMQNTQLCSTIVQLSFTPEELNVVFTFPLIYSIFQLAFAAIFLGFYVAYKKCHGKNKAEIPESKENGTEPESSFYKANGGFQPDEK
Kind of test: IBAT (h/m) assay, human IBAT-overexpressing cells, 3H-taurocholic acid uptake. To be noted: 0.25 μM 3H-taurocholic acid + 5 μM cold taurocholic acid, 20 minutes, read-out: hIBAT IC50. In kind it is cell-based. As for the experimental part: 10,000 cells (Human or Mouse IBAT-overexpressing cells) were seeded in 96-wells plate (Corning CLS3809) in 200 μL MEM-alpha medium (Gibco 12571-063) supplemented with 10% FBS (Gibco 10438026) containing Puromycin (Gibco A1113803) (10 μg/mL) and incubated at 37° C. in 5% CO2 for 48 hours. After incubation, media was decanted from the wells and cells were washed two times with 300 μL of basal MEM-alpha medium (FBS-free). After decanting basal MEM-alpha medium each time, plates were tapped against paper towel to ensure maximum removal of residual media. Test inhibitor dilutions (highest test concentration being 10 μM, 3-fold serial dilution, 10 points) prepared in DMSO (Sigma D2650) were added in incubation mix (maintaining 0.2% final DMSO concentration) containing 0.25 μM 3H-taurocholic acid (ARC ART-1368) and 5 μM of cold taurocholic acid (Sigma T4009). 50 μL of incubation mix containing test inhibitors was then added to the wells (in duplicate) and the plates were incubated for 20 minutes in a CO2 incubator at 37° C. After incubation, the reaction was stopped by keeping the plates on ice water mix for 2-3 minutes and then the incubation mix was aspirated completely from the wells. The wells were washed two times with 250 μL of chilled unlabelled 1 mM taurocholic acid dissolved in HEPES (Gibco 15630080)-buffered (10 mM) HBSS (Gibco 14175079) (pH 7.4). The plates were tapped against a paper towel after every wash to ensure maximum removal of blocking buffer.
100 μL of MicroScint-20 (PerkinElmer 6013621) was added to the wells and kept overnight at room temperature before reading the plates in TopCount NXT™ Microplate Scintillation and Luminescence Counter from PerkinElmer under 3H Test protocol (set at 120 seconds reading time per well).
as §1

Molecules are shown by their SMILES. pIC50: −log10 of the molar value.

As for `CCCCC1(CC)CN(c2ccccc2)c2cc(SC)c(OCCC(=O)O)cc2S(=O)(=O)N1` (racemic) [Example 2, 3-((3-butyl-3-ethyl-7-(methylthio)-1,1-dioxido-5-phenyl-2,3,4,5-tetrahydro-1,2,5-benzothiadiazepin-8-yl)oxy)propanoic acid], the results for the pIC50 on human LBAT and at human IBAT were 6.13 and 8.40, respectively.
For `CCCCC1(CC)CN(c2ccccc2)c2cc(SC)c(OCCC(=O)O)cc2S(=O)(=O)N1` (single isomer, unassigned) [Example 3, 3-((3-butyl-3-ethyl-7-(methylthio)-1,1-dioxido-5-phenyl-2,3,4,5-tetrahydro-1,2,5-benzothiadiazepin-8-yl)oxy)propanoic acid], the values for the negative logarithm of the IC50 (pIC50) at human LBAT and on human IBAT were 6.55 and 7.64, respectively.
For `CCCCC1(CCCC)CN(c2ccccc2)c2cc(SC)c(OCC(O)C(=O)O)cc2S(=O)(=O)N1` (single isomer, unassigned) [Example 6, 3-((3,3-dibutyl-7-(methylthio)-1,1-dioxido-5-phenyl-2,3,4,5-tetrahydro-1,2,5-benzothiadiazepin-8-yl)oxy)-2-hydroxypropanoic acid], in that order: 5.44 and 7.85.
On the same counts, the results for `CCCCC1(CC)CN(c2ccccc2)c2cc(N(C)C)c(OCCC(=O)O)cc2S(=O)(=O)N1` (single isomer, unassigned) [Example 13, 3-((3-butyl-7-(dimethylamino)-3-ethyl-1,1-dioxido-5-phenyl-2,3,4,5-tetrahydro-1,2,5-benzothiadiazepin-8-yl)oxy)propanoic acid] are 5.65 and 7.82.
On the same counts, the results for `CCCCC1(CC)CN(c2ccccc2)c2cc(SC)c(OCC(N)C(=O)O)cc2S(=O)(=O)N1` (stereo not shown) [Example 14, O-(3-butyl-3-ethyl-7-(methylthio)-1,1-dioxido-5-phenyl-2,3,4,5-tetrahydro-1,2,5-benzothiadiazepin-8-yl)serine] are 6.47 and 8.22.

As usually defined, the pIC50 is the negative decadic logarithm of the IC50, by convention in mol/L.

Values taken from patent US11603359B2, “Benzothiadiazepine compounds and their use as bile acid modulators” (Albireo AB, priority 2019, dated 2023).
